In US20140106387A1, “METHOD FOR CONTROLLING NAD(P)/NAD(P)H RATIO BY OXIDOREDUCTASE” (MD BIOALPHA CO., LTD., priority 2006, published 2014):

Columns and labels:
[1] = body weight and dietary intake of leptin receptor-deficient (ob/ob) mice; assay type: in vivo, mouse; settings: for Weight reduction In ob/ob mice (4 wk): after four weeks, relative to ob/ob mice without administration (control), method of Example 23
Protocol: All experimental animal procedures were performed according to a guideline of Institutional Animal Care and Use Committee, Chungnam National University School of Medicine. OLETF rats were purchased from Otsuka Research Institute. Male ob/ob and C57BL/6 mice were purchased from Jackson Laboratory. Animals were housed in a breeding room maintained at a constant temperature of […] and a 12 h/12 h light/dark (L/D) cycle. 4-week-old C57BL/6 male mice were fed ad libitum high fat diet (HFD, 24% (w/w) and 45% calories as fat, Research Diets Inc., New Brunswick, N.J. 08901, US) for 7 weeks. Mouse groups were divided into an untreated group, a vehicle-treated group (calcium silicate), a pair-fed group and a candidate compound-treated group (calcium silicate-coated […] nanoparticles). Body weight and dietary intake of animals were daily measured. Upon completion of experiments, some mice of each group were anesthetized and received MRI examinations. The remaining mice of the groups were anatomized and tissue weight thereof was measured. Epidydimal fat, liver, soleus muscle and extensor digitorum longus (EDL) were prepared, and immunohistochemical, oil-red 0 and pH-sensitive ATPase staining were performed for analysis.
FIGS. 46 and 47 show changes in dietary intake/body weight and changes in body weight for 56 days, according to daily administration of pyrano-1,2-naphthoquinone into leptin receptor-deficient (ob/ob) mice at a dose of 200 mg/kg via an oral route.
This Example was intended to examine effects of varying in vivo NAD(P)^+/NAD(P)H ratio by arbitrary external supply of NAD(P)^+, a method capable of elevating the NAD(P)^+/NAD(P)H ratio in vivo. 100 mg/kg of NAD^+ was administered daily to leptin receptor-deficient (ob/ob) mice via an intraperitoneal (i.p.) route. A control mice group was given i.p. administration of physiological saline at the same dose. Changes in dietary intake/body weight (A) and changes in body weight (B) were measured for 30 days.
200 mg/kg of DMF was daily administered to leptin receptor-deficient (ob/ob) mice via an oral route. A control group received daily i.p. administration of physiological saline at the same dose. Changes in body weight (A) and changes in dietary intake (B) were measured for 30 days. It was confirmed that dietary intake of the treatment group was regulated to a 60 to 70% level of the control group.
(§1) For a variety of NQO1-activating candidate compounds as listed in Table 1 below, a decrease of NAD(P)H was measured based on the aforesaid experimental method (disclosed in Section 10 hereinbefore: NADH recycling assay). In addition, according to the experimental method given in Example 23, the body weight of ob/ob mice after four weeks was measured.
(§2) In this connection, the decreasing degree of NAD(P)H was expressed as a relative amount of NAD(P)H measured upon administration of the NQO1-activating candidate compound, by taking the amount of NAD(P)H in the absence of the NQO1 activator NAD(P)H to be 100. In addition, the degree of the body weight loss was expressed as a percentage of the body weight of ob/ob mice with administration of the NQO1-activating candidate compound, relative to the body weight of ob/ob mice without administration of the NQO1-activating candidate compound (control) after four weeks.

NQO1 = assay: NAD(P)H recycling assay (decrease of NAD(P)H by NQO1-activating candidate compounds); assay type: biochemical; settings: for Residual amount of NAD(P)H(%): relative amount of NAD(P)H, amount in the absence of the NQO1 activator taken to be 100; for decrease of NAD(P)H and consequent body weight reduction: summary of Table 1 in words
Protocol: (10) NAD(P)H Recycling Assay
An NADH recycling assay was carried out using the above-extracted S9 supernatant or human recombinant NQO1 (hrNQO1). 20 μg of the S9 supernatant or 0.5 unit of hrNQO1 in conjunction with 200 μM NAD(P)H were added to a 25 mM Tris/HCl (pH 7.4) solution containing 0.2 mg/mL bovine serum albumin. The enzymatic reaction was initiated with addition of a […] compound and absorbance changes were monitored and recorded at 340 nm for 10 min.
as §1, §2

AMPK = AMPK phosphorylation in HEK293 cells (Western blot); assay type: cell-based, human; settings: HEK293 cells, AICAR 2 mM, 30 min
Protocol: Cells were lysed in SDS sample buffer (62.5 mM Tris HCl (pH 6.8), 6% (w/v) SDS, 30% glycerol, 125 mM DTT, and 0.03% (w/v) bromophenol blue). The total cell lysates were boiled at a temperature of 100° C. for 5 min and electrophoresed on a sodium dodecyl sulfate-polyacrylamide gel, and proteins were transferred on a nitrocellulose membrane. The membrane was reacted in TBS (5% (w/v) milk and 0.1% Tween 20) for 1 hour, and then reacted with primary antibodies for 2 hours. Next, the membrane was developed using HRP-conjugated secondary antibodies (Phototope-HRP Western Blot Detection Kit, New England Biolabs, Beverly, Mass.).
In order to investigate the importance of an NQO1 protein in phosphorylation of AMP kinase, HepG2, MCF-7 and HEK293 cells were seeded onto 60 mm plates at a density of 1×10^6 cells/plate. After growing the cells for 24 hours, the culture medium was replaced with a serum-free medium, and cells were treated with pyrano-1,2-naphthoquinone (10 μM) for 30 min, respectively, in combination with a control group (DMSO). Cells were lysed in RIPA buffer and amounts of all proteins were quantified using a spectrophotometer, and 50 μg of the protein was subjected to electrophoresis. AMP kinase phosphorylation was examined using Anti-AMPK and Anti-pT172-AMPK, whereas the NQO1 protein was assayed using Anti-NQO1. From the fact that AMP kinase phosphorylation by pyran-1,2-naphthoquinone (10 μM) was not observed in HEK293 cells, it can be seen that the NQO1 protein is crucial for phosphorylation of AMP kinase.
In order to examine that an activity of NQO1 is important for the phosphorylation of AMP kinase, HEK293 cells were seeded onto a 6-well plate at a density of 1×10^5 cells/well, cultured for 24 hours, and transfected with pSG5-HA-NQO1 (500 ng) and pSG5-HA-NOQ1-C609T (500 ng) plasmids. After 24 hours, the culture medium was replaced with a serum-free medium, and the cells were treated with pyrano-1,2-naphthoquinone (10 μM) and AICAR (2 mM) for 30 min, in combination with a control (DMSO). AMP kinase phosphorylation were assayed using Anti-AMPK and Anti-pT172-AMPK, whereas transfected NQO1 was assayed using Anti-HA.
In addition, AMPK phosphorylation/activation was not promoted in HEK293 cells, except for HEK293 cells transfected with wild type NQO1.

In the case of `CC1C2=C(OC1(C)C)c1ccccc1C(=O)C2=O` (stereo not drawn) [2,2,3-Trimethyl-2,3-dihydro-naphtho[1,2-b]furan-4,5-dione], the “Weight reduction In ob/ob mice (4 wk)” value [1] is reported as −27.9 ± 0.5%, the “Residual amount of NAD(P)H(%)” value (NQO1) is reported as 52.75 ± 1.88% and the “decrease of NAD(P)H and consequent body weight reduction” value (NQO1) is reported as “significant decrease of NAD(P)H”.

For `CC1(C)CCC2=C(O1)C(=O)c1ccccc1C2=O` [2,2-Dmethyl-3,4-dihydro-2H-benzo[g]chromene-5,10-dione], the “Weight reduction In ob/ob mice (4 wk)” value [1] was 1.3 ± 2.8% and the “Residual amount of NAD(P)H(%)” value (NQO1) was 95 ± 4.5%.

With `CC(C)=CC1(C)CCC2=C(O1)C(=O)c1ccccc1C2=O` (stereo not drawn) [2-Methyl-2-(2-methyl-propenyl)-3,4-dihydro-2H-benzo[g]Chromene-5,10-dione] the “Weight reduction In ob/ob mice (4 wk)” value [1] was −0.7 ± 2.0% and the “Residual amount of NAD(P)H(%)” value (NQO1) was 99.74 ± 2.69%.

With `CC1OC2=C(C(=O)C(=O)c3ccccc32)C1(C)C` (stereo not drawn) [2,3,3-Trimethyl-2,3-dihydro-naphtho[1,2-b]furan-4,5-dione] the “Weight reduction In ob/ob mice (4 wk)” value [1] was −46.2 ± 11.1%, the “Residual amount of NAD(P)H(%)” value (NQO1) was 64.39 ± 1.69% and the “decrease of NAD(P)H and consequent body weight reduction” value (NQO1) was “significant decrease of NAD(P)H”.

For `CC1=CC(=O)c2ccccc2C1=O` [Menadione, 2-Methyl-1,4-naphthoquinone, reference compound], the “Weight reduction In ob/ob mice (4 wk)” value [1] was −2.7 ± 2.0% and the “Residual amount of NAD(P)H(%)” value (NQO1) was 85.65 ± 2.58%.

For `CC(C)C1=CC2OC3=C(CC2(C)CC1)C(=O)C(=O)c1ccccc13` (stereo not drawn) [10-Isopropyl-7a-methyl-7a,8,9,11a-tetrahydro-7H-benzo[c]xanthene-5,6-dione], the “Weight reduction In ob/ob mice (4 wk)” value [1] was −6.7 ± 2.1%, the “Residual amount of NAD(P)H(%)” value (NQO1) was 77.55 ± 4.19% and the “decrease of NAD(P)H and consequent body weight reduction” value (NQO1) was “significant decrease of NAD(P)H”.

In the case of `CC(C)C1=CC2OC3=C(CC2(C)CC1)C(=O)c1ccccc1C3=O` (stereo not drawn) [3-Isoprophy-12a-methyl-2,4a,12,12a-tetradro-7H-benzo[b]xanthene-6,11-dione], the “Weight reduction In ob/ob mice (4 wk)” value [1] is reported as 0.3 ± 2.8% and the “Residual amount of NAD(P)H(%)” value (NQO1) is reported as 99.45 ± 3.56%.

For `CC1CC2=C(O1)c1ccccc1C(=O)C2=O` (stereo not drawn) [2-Methyl-2,3-dihydro-naphtho[1,2-b]furan-4,5-dione], the “Weight reduction In ob/ob mice (4 wk)” value [1] was −39.5 ± 3.1%, the “Residual amount of NAD(P)H(%)” value (NQO1) was 49.73 ± 1.98% and the “decrease of NAD(P)H and consequent body weight reduction” value (NQO1) was “significant decrease of NAD(P)H”.

In the case of `CC1(C)CC2=C(O1)c1ccccc1C(=O)C2=O` [2,2-Dimethyl-2,3-dihydro-naphtho[1,2-b]furan-4,5-dione], the “Weight reduction In ob/ob mice (4 wk)” value [1] is reported as −27.8 ± 8.1%, the “Residual amount of NAD(P)H(%)” value (NQO1) is reported as 45.9 ± 3.90% and the “decrease of NAD(P)H and consequent body weight reduction” value (NQO1) is reported as “significant decrease of NAD(P)H”.

With `COC1=C(OC)C(=O)C(C/C=C(\C)CC/C=C(\C)CC/C=C(\C)CC/C=C(\C)CC/C=C(\C)CC/C=C(\C)CC/C=C(\C)CC/C=C(\C)CC/C=C(\C)CCC=C(C)C)=C(C)C1=O` [CoQ10, reference compound] the “Weight reduction In ob/ob mice (4 wk)” value [1] was 2.3 ± 3.5− % and the “Residual amount of NAD(P)H(%)” value (NQO1) was 101.69 ± 1.32%.

For `NC(=O)c1ccc[n+]([C@@H]2O[C@H](COP(=O)([O-])OP(=O)(O)OC[C@H]3O[C@@H](n4cnc5c(N)ncnc54)[C@H](O)[C@@H]3O)[C@@H](O)[C@H]2O)c1` [NAD^+], the body weight ([1]; NAD+ 100 mg/kg daily i.p., 30 days) was “continuous weight loss for 30 days” and the dietary intake/body weight ([1]; NAD+ 100 mg/kg daily i.p., at around 10 days) was “notably decreased”.

For `CC(C)=C/C(C)=C/C1(C)OC2=C(CC1C)C(=O)C(=O)c1ccccc12` (stereo not drawn) [2-(2,4-Dimethyl-penta-1,3-dienyl)-2,3-dimethyl-3,4-dihydro-2H-benzo[h]chromene-5,6-dione], the “Weight reduction In ob/ob mice (4 wk)” value [1] was −2.2 ± 0.07% and the “Residual amount of NAD(P)H(%)” value (NQO1) was 98.06 ± 5.14%.

In the case of `NC(=O)c1ncn([C@@H]2O[C@H](CO)[C@@H](O)[C@H]2O)c1N` [AICAR, 5-aminoimidazole-4-carboxamide-1-beta-D-ribofuranoside, reference compound], the “phosphorylation of AMPK” value (AMPK) is reported as “increase in phosphorylation of AMPK”.
